Measurements as given in US9394285B2 (Pfizer Inc., priority 2013, dated 2016).
pEC50: −log10 of the molar value.

Columns and labels:
[1] = target: human AMPK (full-length γ1, β1 and α1 subunits) (Homo sapiens (Human), UniProt Q13131+Q9Y478); test: AMPK in vitro biochemical assay (33P-based, SAMS peptide, PP2A dephosphorylation); conditions: for pEC50: activation of phosphorylated AMPK, 33P-ATP, SAMS peptide, PP2A treatment, 4-parameter fit; for Emax: counts as % of positive control wells (enzyme, allosteric activator or AMP, PP2A and substrate), read-out: Maximum
human AMPK (full-length γ1, β1 and α1 subunits), sequence (Q13131 whole entry): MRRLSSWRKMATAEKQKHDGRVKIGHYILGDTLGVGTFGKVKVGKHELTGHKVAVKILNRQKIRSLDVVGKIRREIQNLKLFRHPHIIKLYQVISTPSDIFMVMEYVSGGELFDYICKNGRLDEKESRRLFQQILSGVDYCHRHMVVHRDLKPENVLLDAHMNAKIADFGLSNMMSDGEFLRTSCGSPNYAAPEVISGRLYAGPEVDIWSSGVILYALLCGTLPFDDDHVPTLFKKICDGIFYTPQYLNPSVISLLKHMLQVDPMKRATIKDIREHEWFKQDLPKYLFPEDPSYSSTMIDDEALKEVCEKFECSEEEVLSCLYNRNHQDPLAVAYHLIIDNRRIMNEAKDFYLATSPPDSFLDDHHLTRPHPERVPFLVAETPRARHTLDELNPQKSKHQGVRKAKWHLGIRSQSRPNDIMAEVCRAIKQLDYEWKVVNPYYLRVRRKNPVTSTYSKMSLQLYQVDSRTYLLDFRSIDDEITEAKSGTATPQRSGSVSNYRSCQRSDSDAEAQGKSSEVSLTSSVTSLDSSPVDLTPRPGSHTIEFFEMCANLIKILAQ
human AMPK (full-length γ1, β1 and α1 subunits), sequence (Q9Y478 whole entry): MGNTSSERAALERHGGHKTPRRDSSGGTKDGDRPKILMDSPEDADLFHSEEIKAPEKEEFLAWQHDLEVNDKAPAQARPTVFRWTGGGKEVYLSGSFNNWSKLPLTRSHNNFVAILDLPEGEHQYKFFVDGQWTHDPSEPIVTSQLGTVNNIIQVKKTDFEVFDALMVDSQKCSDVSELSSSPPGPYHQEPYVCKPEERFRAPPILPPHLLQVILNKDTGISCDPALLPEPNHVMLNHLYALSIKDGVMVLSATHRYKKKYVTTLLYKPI
human AMPK (full-length γ1, β1 and α1 subunits), sequence (P54619 whole entry partner): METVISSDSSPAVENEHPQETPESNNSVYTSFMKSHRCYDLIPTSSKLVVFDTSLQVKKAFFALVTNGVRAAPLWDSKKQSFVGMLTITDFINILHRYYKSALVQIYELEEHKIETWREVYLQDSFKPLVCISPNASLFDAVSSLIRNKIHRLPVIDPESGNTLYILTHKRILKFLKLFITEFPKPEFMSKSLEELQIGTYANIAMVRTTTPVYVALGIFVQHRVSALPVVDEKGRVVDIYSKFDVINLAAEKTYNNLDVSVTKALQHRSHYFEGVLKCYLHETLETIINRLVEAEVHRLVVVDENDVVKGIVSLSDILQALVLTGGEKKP
Procedure, shortened: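 Phosphorylated full-length α1β1γ1 AMPK (E. coli-expressed, His-purified, gel-filtered) preincubated 15 min RT with compound in HEPES pH 7.5, 10 mM MgCl2 buffer, then PP2A added to dephosphorylate pThr172.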

| Structure (SMILES) | melting point | pEC50 [1] | Emax [1] |
| --- | --- | --- | --- |
| COc1ccc(-c2cc3c(S(=O)(=O)O)c[nH]c3cc2Cl)cc1 [Example 132, 6-Chloro-5-(4-methoxyphenyl)-1H-indole-3-sulfonic acid] | 240 °C (dec.) | 6.32 | 46% |
| O=C(O)c1n[nH]c2cc(F)c(-c3ccc(C4CCOCC4)cc3)cc12 [Example 130, 6-Fluoro-5-(4-(tetrahydro-2H-pyran-4-yl)phenyl)-1H-indazole-3-carboxylic acid] | 295 °C | 6.52 | 100% |
| N#Cc1cc2[nH]cc(C(=O)O)c2cc1-c1ccc(C2(CO)CC2)cc1 [Example 23, 6-cyano-5-{4-[1-(hydroxymethyl)cyclopropyl]phenyl}-1H-indole-3-carboxylic acid] | 270.9 to 271.6 °C | 7.80 | 88% |
| O=C(O)c1c[nH]c2cc(Cl)c(-c3ccc(OCCCO)cc3)cc12 [Example 30, 6-chloro-5-[4-(3-hydroxypropoxy)phenyl]-1H-indole-3-carboxylic acid] | 209.3 to 209.6 °C | 7.52 | 92% |
